From ChEMBL document CHEMBL5465560, “Selectivity Literature for EUbOPEN Chemogenomic Library” (2024)
Each block holds one molecule with its values, some of them ahead of it.

Key:
[1] = molecular target: T1, Ephrin type-B receptor 1 (Homo sapiens) (UniProt P54762); settings: at 10 µM
T1 sequence (whole entry): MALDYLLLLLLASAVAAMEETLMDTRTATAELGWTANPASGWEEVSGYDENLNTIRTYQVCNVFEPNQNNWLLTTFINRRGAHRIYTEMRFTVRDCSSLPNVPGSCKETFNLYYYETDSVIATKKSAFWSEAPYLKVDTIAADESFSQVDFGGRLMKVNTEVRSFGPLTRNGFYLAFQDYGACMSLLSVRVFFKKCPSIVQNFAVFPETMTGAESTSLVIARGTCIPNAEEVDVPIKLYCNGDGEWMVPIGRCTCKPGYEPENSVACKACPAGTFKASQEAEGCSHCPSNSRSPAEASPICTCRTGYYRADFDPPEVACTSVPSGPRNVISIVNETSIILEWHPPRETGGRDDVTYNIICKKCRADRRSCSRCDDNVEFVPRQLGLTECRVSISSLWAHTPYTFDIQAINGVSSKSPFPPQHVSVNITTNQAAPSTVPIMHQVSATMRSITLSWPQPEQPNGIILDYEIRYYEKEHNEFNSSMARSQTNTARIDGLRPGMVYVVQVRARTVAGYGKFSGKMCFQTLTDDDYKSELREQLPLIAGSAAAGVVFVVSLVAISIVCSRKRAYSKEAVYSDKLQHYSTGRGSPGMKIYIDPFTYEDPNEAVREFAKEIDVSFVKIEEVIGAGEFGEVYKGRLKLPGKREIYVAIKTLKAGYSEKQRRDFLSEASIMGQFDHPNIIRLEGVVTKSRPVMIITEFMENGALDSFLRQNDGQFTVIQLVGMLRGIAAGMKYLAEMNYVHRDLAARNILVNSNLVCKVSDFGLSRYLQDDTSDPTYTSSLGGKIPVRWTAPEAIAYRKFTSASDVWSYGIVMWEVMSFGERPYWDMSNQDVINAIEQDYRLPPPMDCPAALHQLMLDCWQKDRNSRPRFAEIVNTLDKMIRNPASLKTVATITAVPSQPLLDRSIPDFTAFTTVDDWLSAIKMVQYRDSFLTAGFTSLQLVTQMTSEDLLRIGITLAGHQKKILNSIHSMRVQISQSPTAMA

[2] = molecular target: Myosin-IIIa (Homo sapiens) (UniProt Q8NEV4); settings: at 10 µM
[3] = molecular target: T2, Serine/threonine-protein kinase tousled-like 1 (Homo sapiens) (UniProt Q9UKI8); assay: Selectivity interaction (ActivX KiNativ screen (kinase selectivity in THP-1 cell lysates)) EUB0000639a TLK1; format: subcellular; settings: lysate, at 5 µM
T2 sequence (whole entry): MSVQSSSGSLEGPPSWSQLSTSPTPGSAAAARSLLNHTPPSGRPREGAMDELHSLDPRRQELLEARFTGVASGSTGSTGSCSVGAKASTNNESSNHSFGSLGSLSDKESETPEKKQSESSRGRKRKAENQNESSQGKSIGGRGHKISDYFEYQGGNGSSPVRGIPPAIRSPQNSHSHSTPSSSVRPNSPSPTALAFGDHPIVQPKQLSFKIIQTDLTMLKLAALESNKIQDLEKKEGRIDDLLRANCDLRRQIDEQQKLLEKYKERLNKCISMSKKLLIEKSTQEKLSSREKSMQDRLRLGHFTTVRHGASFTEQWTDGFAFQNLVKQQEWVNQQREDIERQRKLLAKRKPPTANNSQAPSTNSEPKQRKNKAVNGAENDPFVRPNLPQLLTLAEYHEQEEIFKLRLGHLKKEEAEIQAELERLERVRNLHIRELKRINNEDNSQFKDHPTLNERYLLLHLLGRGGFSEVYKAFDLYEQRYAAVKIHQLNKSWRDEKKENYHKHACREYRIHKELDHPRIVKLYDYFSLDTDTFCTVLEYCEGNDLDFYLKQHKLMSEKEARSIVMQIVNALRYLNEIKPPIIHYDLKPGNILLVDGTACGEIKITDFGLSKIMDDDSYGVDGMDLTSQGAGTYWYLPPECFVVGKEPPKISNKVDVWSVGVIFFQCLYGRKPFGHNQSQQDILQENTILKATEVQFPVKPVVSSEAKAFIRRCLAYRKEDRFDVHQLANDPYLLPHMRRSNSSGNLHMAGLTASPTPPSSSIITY

[4] = molecular target: T3, Glycogen synthase kinase-3 alpha (Homo sapiens, UniProt P49840); assay: Selectivity interaction (ProQinase) EUB0000171b GSK3A
[5] = molecular target: Dual specificity mitogen-activated protein kinase kinase 1 (Homo sapiens, UniProt Q02750); assay: Selectivity interaction (ProQinase) EUB0000171b MAP2K1
[6] = molecular target: Platelet-derived growth factor receptor beta (Homo sapiens, UniProt P09619); assay: Selectivity interaction (Kinase panel (enzymatic assay)) EUB0000595a PDGFRB
[7] = tested on: Tyrosine-protein kinase ABL1 (Homo sapiens), P00519 [H396P]; assay: Selectivity interaction (KinomeScan (DiscoverX)) EUB0001049a ABL1; settings: at 1 µM
[8] = molecular target: Calcium/calmodulin-dependent protein kinase kinase 2 (Homo sapiens) (UniProt Q96RR4); assay: Selectivity interaction (KinomeScan (DiscoverX)) EUB0000045b CAMKK2
[9] = molecular target: Serine/threonine-protein kinase RIO2 (Homo sapiens) (UniProt Q9BVS4); assay: Selectivity interaction (KinomeScan (DiscoverX)) EUB0000045b RIOK2
[10] = tested on: eIF-2-alpha kinase GCN2 (Homo sapiens), Q9P2K8 [S808G]; assay: Selectivity interaction (KinomeScan (DiscoverX)) EUB0001079a EIF2AK4; settings: at 1 µM
[11] = molecular target: Phosphatidylinositol 4-kinase alpha (Homo sapiens, UniProt P42356); assay: Selectivity interaction (Kinase panel (KiNativ target engagement assay in Jurkat cells)) EUB0001635a PI4KA; format: cell-based; settings: Selectivity number of off-targets 0.0, Selectivity number of targets 233.0, Source Knowledge https://www.sciencedirect.com/science/article/pii/S2451945619300674?via%3Dihub, at 1 µM
[12] = molecular target: T3, Glycogen synthase kinase-3 alpha; assay: Selectivity interaction (KinomeScan (DiscoverX)) EUB0000092b GSK3A; settings: at 10 µM

T3 sequence (P49840 2-483 limits assumed): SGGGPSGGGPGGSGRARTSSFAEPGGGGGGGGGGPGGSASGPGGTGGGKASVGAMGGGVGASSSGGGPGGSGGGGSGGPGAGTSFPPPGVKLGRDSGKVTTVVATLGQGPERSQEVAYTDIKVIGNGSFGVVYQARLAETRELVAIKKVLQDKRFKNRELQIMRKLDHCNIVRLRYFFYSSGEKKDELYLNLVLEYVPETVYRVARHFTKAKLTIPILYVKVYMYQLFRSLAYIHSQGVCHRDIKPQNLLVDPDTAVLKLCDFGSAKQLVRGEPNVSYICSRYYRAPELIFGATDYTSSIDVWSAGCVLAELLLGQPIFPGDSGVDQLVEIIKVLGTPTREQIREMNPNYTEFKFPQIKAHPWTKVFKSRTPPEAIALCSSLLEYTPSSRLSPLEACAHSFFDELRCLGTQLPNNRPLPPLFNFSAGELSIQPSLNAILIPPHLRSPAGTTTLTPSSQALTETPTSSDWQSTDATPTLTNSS
Chain of Serine/threonine-protein kinase RIO2 (Homo sapiens) (Q9BVS4 whole entry, looked up): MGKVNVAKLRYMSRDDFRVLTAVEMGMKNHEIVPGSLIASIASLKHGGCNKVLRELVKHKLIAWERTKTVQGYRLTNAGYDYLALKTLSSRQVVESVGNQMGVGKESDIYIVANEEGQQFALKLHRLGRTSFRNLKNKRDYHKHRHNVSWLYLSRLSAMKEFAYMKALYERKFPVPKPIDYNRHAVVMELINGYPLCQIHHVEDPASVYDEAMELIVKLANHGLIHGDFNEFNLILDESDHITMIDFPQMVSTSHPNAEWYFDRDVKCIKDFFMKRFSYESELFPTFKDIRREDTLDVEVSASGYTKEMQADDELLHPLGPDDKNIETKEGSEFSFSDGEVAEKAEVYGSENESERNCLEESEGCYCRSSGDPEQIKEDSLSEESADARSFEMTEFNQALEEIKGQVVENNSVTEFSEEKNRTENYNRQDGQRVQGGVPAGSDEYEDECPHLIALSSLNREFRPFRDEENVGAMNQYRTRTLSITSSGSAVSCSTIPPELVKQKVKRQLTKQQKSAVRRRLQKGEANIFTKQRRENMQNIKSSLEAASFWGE
Chain of Dual specificity mitogen-activated protein kinase kinase 1 (Q02750 whole entry): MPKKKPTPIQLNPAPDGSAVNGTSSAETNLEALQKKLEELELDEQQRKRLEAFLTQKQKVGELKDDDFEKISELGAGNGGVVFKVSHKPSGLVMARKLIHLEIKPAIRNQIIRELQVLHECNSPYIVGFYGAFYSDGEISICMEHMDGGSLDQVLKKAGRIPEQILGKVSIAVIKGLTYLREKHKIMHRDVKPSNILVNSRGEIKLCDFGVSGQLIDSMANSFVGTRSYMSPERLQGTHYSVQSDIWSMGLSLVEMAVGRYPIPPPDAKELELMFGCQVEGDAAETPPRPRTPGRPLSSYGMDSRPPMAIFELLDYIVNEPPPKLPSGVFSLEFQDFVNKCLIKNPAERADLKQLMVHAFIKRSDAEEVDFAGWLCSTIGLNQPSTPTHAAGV
Chain of Calcium/calmodulin-dependent protein kinase kinase 2 (Homo sapiens) (Q96RR4 2-588 limits assumed): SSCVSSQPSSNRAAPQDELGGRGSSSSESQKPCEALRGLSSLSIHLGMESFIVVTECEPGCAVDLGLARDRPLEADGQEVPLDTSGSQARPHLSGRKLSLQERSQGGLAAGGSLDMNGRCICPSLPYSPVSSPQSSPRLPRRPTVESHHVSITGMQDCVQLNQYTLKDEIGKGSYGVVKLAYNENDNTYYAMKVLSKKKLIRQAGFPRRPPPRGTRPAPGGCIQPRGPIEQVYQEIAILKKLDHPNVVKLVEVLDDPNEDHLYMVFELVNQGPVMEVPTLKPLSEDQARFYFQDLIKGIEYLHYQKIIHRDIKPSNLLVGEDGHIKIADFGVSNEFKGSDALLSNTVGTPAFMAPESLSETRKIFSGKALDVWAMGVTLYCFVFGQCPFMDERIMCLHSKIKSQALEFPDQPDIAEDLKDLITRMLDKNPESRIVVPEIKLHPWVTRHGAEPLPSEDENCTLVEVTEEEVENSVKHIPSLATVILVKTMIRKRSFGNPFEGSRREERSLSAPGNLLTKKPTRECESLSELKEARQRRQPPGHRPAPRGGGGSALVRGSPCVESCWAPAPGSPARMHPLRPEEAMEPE
Chain of Platelet-derived growth factor receptor beta (P09619 whole entry): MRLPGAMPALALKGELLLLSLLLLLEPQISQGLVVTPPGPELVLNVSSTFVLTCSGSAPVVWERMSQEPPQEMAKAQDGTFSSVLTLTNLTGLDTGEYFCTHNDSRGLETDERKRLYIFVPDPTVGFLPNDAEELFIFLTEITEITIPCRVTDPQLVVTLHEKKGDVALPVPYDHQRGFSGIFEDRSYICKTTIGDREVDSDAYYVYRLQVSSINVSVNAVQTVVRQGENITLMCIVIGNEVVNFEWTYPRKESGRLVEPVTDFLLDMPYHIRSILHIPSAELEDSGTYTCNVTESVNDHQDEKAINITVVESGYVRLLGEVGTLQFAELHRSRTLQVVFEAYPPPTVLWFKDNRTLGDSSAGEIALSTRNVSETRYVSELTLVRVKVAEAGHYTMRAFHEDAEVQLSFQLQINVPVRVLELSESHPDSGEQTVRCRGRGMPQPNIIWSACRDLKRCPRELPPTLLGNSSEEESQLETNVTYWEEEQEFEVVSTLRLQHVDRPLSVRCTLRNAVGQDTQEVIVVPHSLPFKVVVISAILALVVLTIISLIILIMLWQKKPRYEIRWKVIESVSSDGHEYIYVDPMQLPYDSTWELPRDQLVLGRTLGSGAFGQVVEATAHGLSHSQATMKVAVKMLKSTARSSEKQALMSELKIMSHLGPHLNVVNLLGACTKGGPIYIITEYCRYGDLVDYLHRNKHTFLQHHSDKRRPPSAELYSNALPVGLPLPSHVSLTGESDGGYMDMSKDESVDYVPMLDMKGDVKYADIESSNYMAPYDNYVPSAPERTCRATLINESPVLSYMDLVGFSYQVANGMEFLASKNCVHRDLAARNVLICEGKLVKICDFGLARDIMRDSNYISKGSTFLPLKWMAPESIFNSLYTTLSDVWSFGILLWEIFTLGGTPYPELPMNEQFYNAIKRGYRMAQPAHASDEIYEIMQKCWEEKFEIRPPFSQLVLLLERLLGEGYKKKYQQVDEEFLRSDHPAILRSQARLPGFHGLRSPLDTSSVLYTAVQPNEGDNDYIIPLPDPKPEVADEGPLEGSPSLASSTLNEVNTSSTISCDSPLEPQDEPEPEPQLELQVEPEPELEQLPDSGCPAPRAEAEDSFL
Chain of Myosin-IIIa (Homo sapiens) (Q8NEV4 whole entry): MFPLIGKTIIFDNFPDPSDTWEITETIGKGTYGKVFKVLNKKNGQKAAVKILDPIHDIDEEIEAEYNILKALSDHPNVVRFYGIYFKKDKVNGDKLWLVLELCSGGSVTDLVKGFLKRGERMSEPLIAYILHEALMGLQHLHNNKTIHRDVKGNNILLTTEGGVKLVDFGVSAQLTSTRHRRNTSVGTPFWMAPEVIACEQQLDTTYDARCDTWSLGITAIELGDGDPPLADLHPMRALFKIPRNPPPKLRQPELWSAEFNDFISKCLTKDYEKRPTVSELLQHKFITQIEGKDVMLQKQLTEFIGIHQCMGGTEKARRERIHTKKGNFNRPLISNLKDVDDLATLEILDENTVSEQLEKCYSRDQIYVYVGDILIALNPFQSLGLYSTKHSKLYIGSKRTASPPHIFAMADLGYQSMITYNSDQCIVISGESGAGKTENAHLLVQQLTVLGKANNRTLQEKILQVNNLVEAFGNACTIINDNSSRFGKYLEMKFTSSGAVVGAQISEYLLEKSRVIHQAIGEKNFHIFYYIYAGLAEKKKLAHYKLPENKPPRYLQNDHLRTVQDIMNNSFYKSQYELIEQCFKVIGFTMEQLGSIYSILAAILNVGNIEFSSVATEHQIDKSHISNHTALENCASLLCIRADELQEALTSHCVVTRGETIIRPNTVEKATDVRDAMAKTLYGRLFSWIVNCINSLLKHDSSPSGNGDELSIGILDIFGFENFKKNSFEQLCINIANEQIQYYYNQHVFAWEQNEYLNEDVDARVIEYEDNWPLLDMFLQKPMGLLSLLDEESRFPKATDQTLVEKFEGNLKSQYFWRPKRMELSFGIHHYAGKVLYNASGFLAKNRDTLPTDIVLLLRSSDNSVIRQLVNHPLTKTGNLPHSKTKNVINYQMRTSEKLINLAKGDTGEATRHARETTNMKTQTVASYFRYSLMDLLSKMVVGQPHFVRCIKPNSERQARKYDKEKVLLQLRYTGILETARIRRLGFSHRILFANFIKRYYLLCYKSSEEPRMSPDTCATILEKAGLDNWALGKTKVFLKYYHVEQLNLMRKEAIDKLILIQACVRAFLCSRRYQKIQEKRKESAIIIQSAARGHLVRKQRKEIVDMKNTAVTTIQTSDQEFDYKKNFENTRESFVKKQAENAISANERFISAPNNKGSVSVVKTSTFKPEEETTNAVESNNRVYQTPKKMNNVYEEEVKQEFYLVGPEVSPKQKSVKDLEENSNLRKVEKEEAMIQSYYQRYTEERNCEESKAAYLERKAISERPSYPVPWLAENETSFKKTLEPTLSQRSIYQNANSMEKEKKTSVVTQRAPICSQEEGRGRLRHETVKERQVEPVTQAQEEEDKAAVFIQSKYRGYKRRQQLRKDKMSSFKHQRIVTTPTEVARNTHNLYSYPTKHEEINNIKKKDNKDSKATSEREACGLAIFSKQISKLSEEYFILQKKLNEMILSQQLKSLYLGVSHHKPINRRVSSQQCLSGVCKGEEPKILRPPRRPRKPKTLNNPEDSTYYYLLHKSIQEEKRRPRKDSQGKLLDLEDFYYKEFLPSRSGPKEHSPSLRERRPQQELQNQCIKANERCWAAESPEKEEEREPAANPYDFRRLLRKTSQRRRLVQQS

% of control [1]: 100%
% of control [2]: 100%
Compound: CCN(CC)CCCCNc1ncc2cc(-c3cc(OC)cc(OC)c3)c(NC(=O)NC(C)(C)C)nc2n1

% of inhibition [3]: 74%
Compound: CC[C@@H]1[C@H](F)C(=O)N[C@@H]1COc1nccc2cc(C(N)=O)c(OC)cc12 [ZIMLOVISERTIB]

% of control ([4]; at 1 µM): 90%
% of control ([4]; at 5 µM): 61%
% of control ([5]; at 1 µM): 96%
% of control ([5]; at 5 µM): 113%
Compound: C=CC(=O)Nc1cccc(C(=O)Nc2ccc(Nc3cc(-c4[nH]c(SC)nc4C)ccn3)cc2)c1

Compound: COCC(=O)NC/C=C/c1ccc2ncnc(Nc3ccc(Oc4ccc(C)nc4)c(C)c3)c2c1 [CP-724714]
IC50 [6]: > 10 µM

Compound: COc1cc(Nc2nc(C)cc(-c3cnn4nc(OC)ccc34)n2)cc(C(F)(F)F)c1
% of control [7]: 73%

Compound: C=CC(=O)Nc1cc(-n2c(=O)ccc3cnc4ccc(-c5ccc(NS(C)(=O)=O)cc5)cc4c32)ccc1C
% of control ([8]; at 1 µM): 100%
% of control ([8]; at 10 µM): 92%
% of control ([9]; at 1 µM): 66%
% of control ([9]; at 10 µM): 43%

Compound: Nc1cnc(N2CCc3cc(S(=O)(=O)Nc4c(F)cc(Cl)cc4F)cc(N4CCCC4=O)c32)nc1 [TP-020n]
% of control [10]: 100%

Compound: C=CC(=O)Nc1ccc(C(=O)Nc2[nH]nc3c2CN(C(=O)N[C@H](CN(C)C)c2ccccc2)C3(C)C)cc1
% of engagement [11]: 5.7%

Compound: CCC(=O)N1CCN(c2ccc(-n3c(=O)ccc4cnc5ccc(-c6cnc7ccccc7c6)cc5c43)cc2C(F)(F)F)CC1
% of control [12]: 93%
